Reference: publication PMC4012441, “Nature’s Lab for Derivatization: New and Revised Structures of a Variety of Streptophenazines Produced by a Sponge-Derived Streptomyces Strain” (Marine Drugs, 2014)

Target: T1, PDE 4B (Homo sapiens, UniProt Q07343)
T1 construct: gene PDE4B
Assay: PDE4B enzyme inhibition assay (according to Schulz et al.)
Type: biochemical

T1 sequence (Q07343 whole entry): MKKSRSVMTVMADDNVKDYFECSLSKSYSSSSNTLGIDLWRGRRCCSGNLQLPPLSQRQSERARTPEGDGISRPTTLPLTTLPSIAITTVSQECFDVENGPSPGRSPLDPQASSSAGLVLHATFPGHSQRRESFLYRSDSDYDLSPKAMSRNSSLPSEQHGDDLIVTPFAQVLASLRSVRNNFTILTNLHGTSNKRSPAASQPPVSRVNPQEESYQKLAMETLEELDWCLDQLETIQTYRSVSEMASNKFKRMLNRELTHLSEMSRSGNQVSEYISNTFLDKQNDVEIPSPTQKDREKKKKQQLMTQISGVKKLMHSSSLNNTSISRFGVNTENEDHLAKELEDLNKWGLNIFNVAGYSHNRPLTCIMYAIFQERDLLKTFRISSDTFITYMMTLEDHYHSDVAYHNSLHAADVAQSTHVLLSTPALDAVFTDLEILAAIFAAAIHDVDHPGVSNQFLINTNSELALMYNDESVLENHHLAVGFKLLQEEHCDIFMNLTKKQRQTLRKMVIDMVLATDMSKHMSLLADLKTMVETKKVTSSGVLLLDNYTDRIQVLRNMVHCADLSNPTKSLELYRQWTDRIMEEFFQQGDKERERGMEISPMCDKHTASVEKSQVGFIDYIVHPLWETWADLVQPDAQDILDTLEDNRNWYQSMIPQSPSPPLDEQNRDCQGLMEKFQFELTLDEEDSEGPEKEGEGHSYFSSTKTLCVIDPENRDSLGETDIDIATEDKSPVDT

**Q.** Which IC50 does the source give for `COC(=O)c1cccc2nc3c(C(O)C(CCCC(C)C(C)O)C(=O)OC)cccc3nc12` (stereo not drawn) [compound 2, Streptophenazine J] here?
**A.** 12 µM

**Q.** `CCC(C)CCC[C@@H](C(=O)OC)[C@H](O)c1cccc2nc3c(C(=O)OC)cccc3nc12` (stereo partly drawn) [compound 9, Streptophenazine G] was tested. Which IC50 did it give?
**A.** 5.2 µM

**Q.** With `CCC(C)CCC[C@@H](C(=O)OC)[C@H](O)c1cccc2nc3c(C(=O)O)cccc3nc12` (stereo partly drawn) [compound 3, Streptophenazine K] as the compound, how does the IC50 read?
**A.** 12.2 µM
